Assay results published in ChEMBL document CHEMBL4414630, “Cyclobutastellettolides A and B, C19 Norterpenoids from a Stelletta sp. Marine Sponge” (J Nat Prod, 2019).

Experiments:
[1] = system: N2a; assay: Cytotoxicity against mouse Neuro2a cells assessed as inhibition of cell viability incubated for 24 hrs by MTT assay; type: cell-based
[2] = system: DLD-1; assay: Cytotoxicity against human DLD1 cells assessed as inhibition of cell viability incubated for 24 hrs by MTS assay; type: cell-based; conditions: DLD-1, 24 h
[3] = system: Peritoneal macrophage; assay: Induction of ROS generation in BALB/c mouse peritoneal macrophages at 10 uM incubated for 1 hr by H2DCF-DA staining based fluorescence analysis relative to control; type: functional
[4] = system: HT-29; assay: Cytotoxicity against human HT-29 cells assessed as inhibition of cell viability incubated for 24 hrs by MTS assay; type: cell-based; conditions: HT-29, 24 h
[5] = system: Peritoneal macrophage; assay: Induction of ROS generation in BALB/c mouse peritoneal macrophages at 1 uM incubated for 1 hr by H2DCF-DA staining based fluorescence analysis relative to control; type: functional

Row | SMILES | IC50 [1] | IC50 [2] | Activity [3] | IC50 [4] | Activity [5]
1 | CC1(C)C(=O)CC[C@@]2(C)[C@H]1CC[C@]1(C)C(=O)[C@@]3(C)OC(=O)C[C@@]213 | > 40 µM | > 40 µM | 93% | > 40 µM | 55%
2 | CC(=O)O[C@H]1CC[C@@]2(C)[C@@H](CC[C@]3(C)C(=O)[C@@]4(C)OC(=O)C[C@@]234)C1(C)C | > 40 µM | > 40 µM | 90% | > 40 µM | 73%
